Experimental data from patent US7579374B2, “Agent for improving bone metabolism” (The Nisshin OilliO Group, Ltd., priority 2001, dated 2009).

Legend:
Assay type in all cases: cell-based, mice
[1] = tested on: osteoclasts; test: Bone absorption-inhibitory action in cell co-cultivation system (TRACP activity); set-up: key to Judged Efficacy (TRACP, t-test relative to the control): ⊚: The test substance shows a considerable inhibitory effect (p < 0.01); ◯: The test substance shows an inhibitory effect (p < 0.05); Δ: The test substance shows only slight or no inhibitory effect (there is not observed any significant difference); X: The test substance shows a bone absorption-promoting effect (there is observed a negativesignificant difference); conditions: 10 μM test substance; for Judged Efficacy (TRACP, t-test relative to the control): 2 weeks; for TRACP Act.: co-culture 2 weeks with 10 nM Calcitriol and 100 nM Dexamethasone, control 102.8 ± 12.6
Description: The cell co-culture system used herein means a system in which osteoblasts and hematopoietic cells are subjected to co-culture in the presence of a factor for promoting the formation of osteoclasts and which thus easily permits the analysis of the differentiation process of the osteoclasts (Endocrinology, 1988, 123: 2600-2602). In such a system, osteoclasts are formed and therefore, the degree of osteoclast-formation can be evaluated by the determination of a tartaric acid-resistant acid phosphatase (TRACP) activity in the cell layer as the parameter indicative of the osteoclast.
The test for the confirmation of the bone absorption-inhibitory action of the isoprenoid ester was carried out according to the method disclosed in the literature (Endocrinology, 1988, 123: 2600). The method will be outlined below:
Stroma cells collected from the skull-caps of two-week-old mice according to the method disclosed in the literature (Endocrinology, 1988, 123: 2600) were dispersed in a 10% fetal bovine serum-containing culture base liquid (α-MEM; available from Gibco Company) to a cell density of 5×10^4 cells/mL.
Spleen cells collected from the spleen of 6-week-old ddy male mice according to the method disclosed in the literature (Proc. Natl. Acad. Sci. USA, 1983, 80: 5583) were dispersed in a 10% fetal bovine serum-containing culture base liquid (α-MEM; available from Gibco Company) to a cell density of 5×10^5 cells/mL.
The co-cultivation was carried out in a 5% CO2-containing atmosphere at a temperature of 37° C. using a 10% FBS (fetal bovine serum)-containing culture base liquid (α-MEM; available from Gibco Company). Osteoblast cells were inoculated on a 24-well petri dish at a cell density of 5×10^4 cells/mL/well, spleen cells were then inoculated thereon at a cell density of 5×10^5 cells/mL/well after one day and a solution of a test substance, which had been dissolved in DMSO in a concentration of 10^-2M, was then added to each well in such a manner that the concentration of the test substance was equal to 10 μM. These cells were cultivated in the presence of 10 nM Calcitriol and 100 nM Dexamethasone over 2 weeks while defining the day on which the spleen cells were inoculated as 0th day. In this respect, the culture medium was replaced with fresh one twice a week. After two weeks, the activity of the tartrate-resistant acid phosphatase (hereunder referred to as “TRACP”) in the cell layer was determined, which served as a parameter indicating the number of osteoclasts in the layer.
In the determination of the TRACP activity, there was used a kit of acid phosphatase KII-WAKO (available from WAKO Pure Chemical Co., Ltd.). The culture medium was removed from the Petri dish, 500 μL each of a substrate was added to each well, the resulting cell suspension was heated at 37° C. for 15 minutes, followed by the addition of 500 μL each of a color developing liquid and the determination of the absorbance at a wavelength of 570 nm. The TRACP activity corresponding to each absorbance thus measured was determined using a calibration curve prepared in advance.

[2] = tested on: MC3T3-E1 cells; test: Cell growth rate of osteoblasts in cell culture system; conditions: 10 μM; for Cell Growth Rate: viable cells after 3 days, relative to control defined as 100
Description: (§1) In such a system, the osteoblasts are proliferated and the activity of osteoblasts is increased. Therefore, any influence of a substance on the osteoblast-formation can be evaluated by determining, for instance, the rate of cell proliferation and the alkaline phosphatase (ALP) activity as an activity parameter.
(§2) In this Example, there were examined the effects of the chain isoprenoid fatty acid esters on the differentiation and calcium-accumulation of MC3T3-E1 cells or the osteoblasts derived from the skull-caps of mice. A culture medium was added to a 6-well plate in an amount of 2 mL/well, a desired number of MC3T3-E1 cells was inoculated on the medium and the cells were cultivated in a 10% fatal bovine serum-containing base culture liquid (α-MEM, available from Gibco Company) at 37° C. in an atmosphere of 5% CO2. On the day subsequent to the initiation of the cultivation, the culture medium was replaced with the fresh one and simultaneously a solution containing each test sample (the chain isoprenoid fatty acid esters obtained in Preparation Examples 1 to 9) was admixed with and added to the culture medium in an amount of 10 μM for the determination of the cell growth rate and 2.5 μM for the determination of the alkali phosphatase (ALP) activity and the cultivation was continued. The cells for the cell growth rate determination were recovered after 3 days from the initiation of the cultivation and the number of viable cells was counted to determine the cell growth rate. Regarding the other cells, the medium was replaced with fresh one on 5th day of cultivation, the test sample-containing solution was again added and the alkali phosphatase (ALP) activity was determined after the cultivation over one week.
The cell growth rate was calculated as a value relative to the cell growth rate observed for the control (free of any added test sample), which was defined to be 100.

[3] = tested on: MC3T3-E1 cells; test: Alkaline phosphatase (ALP) activity of osteoblasts in cell culture system; set-up: key to Judged Efficacy (ALP, t-test relative to the control): ⊚: The test substance shows a considerable inhibitory effect (p < 0.01); ◯: The test substance shows an inhibitory effect (p < 0.05); Δ: The test substance shows only slight or no inhibitory effect (there is not observed any significant difference); X: The test substance shows a bone absorption-promoting effect (there is observed a negativesignificant difference); conditions: 2.5 μM; for ALP Act.: cultivation over one week, control 71.6 ± 4.6; for Judged Efficacy (ALP, t-test relative to the control): one week
Description: as §1, §2
In these experiments, there was used a kit for Alkaline Phospha K-Test WAKO (available from WAKO Pure Chemical Co., Ltd.). A sample used was a suspension of cells obtained by cultivating the same in the presence of each test substance added. A substrate (150 μL) was added to 10 μL of each sample followed by heating at 37° C. for 15 minutes, the addition of 150 μL of a color-developing liquid and determination of the absorbance at 570 nm. The ALP activity corresponding to each absorbance thus measured was determined using a calibration curve prepared in advance.

## CCC=CCC=CCC=CCC=CCC=CCCCC(=O)OCCC(C)CCCC(C)CCCC(C)CCCC(C)C (centres unmarked) [Dihydrophytyl Eicosapentaenoate]
[1]
  Judged Efficacy (TRACP, t-test relative to the control): ◯ (The test substance shows an inhibitory effect (p < 0.05))
  TRACP Act.: 83.4 ± 9.4 KA-U/well
[2]
  Cell Growth Rate: 118.9%
[3]
  ALP Act.: 118.7 ± 8.9 KA-U/well
  Judged Efficacy (ALP, t-test relative to the control): ⊚ (The test substance shows a considerable inhibitory effect (p < 0.01))

## CCCCC/C=C\C/C=C\C/C=C\CCCCC(=O)OC/C=C(\C)CC/C=C(\C)CC/C=C(\C)CCC=C(C)C [Geranyl-Geranyl γ-Linolenate]
[1]
  Judged Efficacy (TRACP, t-test relative to the control): ⊚ (The test substance shows a considerable inhibitory effect (p < 0.01))
  TRACP Act.: 21.7 ± 4.9 KA-U/well
[2]
  Cell Growth Rate: 111.4%
[3]
  ALP Act.: 84.4 ± 5.1 KA-U/well
  Judged Efficacy (ALP, t-test relative to the control): ⊚ (The test substance shows a considerable inhibitory effect (p < 0.01))

## CCCCCCCC/C=C\CCCCCCCC(=O)OC/C=C(\C)CC/C=C(\C)CC/C=C(\C)CCC=C(C)C [Geranyl-geranyl oleate, Geranyl-Geranyl Oleate]
[1]
  Judged Efficacy (TRACP, t-test relative to the control): ⊚ (The test substance shows a considerable inhibitory effect (p < 0.01))
  TRACP Act.: 16.8 ± 3.4 KA-U/well
[2]
  Cell Growth Rate: 108.3%
[3]
  ALP Act.: 82.8 ± 6.7 KA-U/well
  Judged Efficacy (ALP, t-test relative to the control): ◯ (The test substance shows an inhibitory effect (p < 0.05))

## CCCCCCCCCCCCCCCCCC(=O)OC/C=C(\C)CC/C=C(\C)CC/C=C(\C)CCC=C(C)C [Geranyl-geranyl stearate, Geranyl-Geranyl Stearate]
[1]
  Judged Efficacy (TRACP, t-test relative to the control): ⊚ (The test substance shows a considerable inhibitory effect (p < 0.01))
  TRACP Act.: 25.3 ± 5.2 KA-U/well
[2]
  Cell Growth Rate: 102.9%
[3]
  ALP Act.: 80.1 ± 5.2 KA-U/well
  Judged Efficacy (ALP, t-test relative to the control): ◯ (The test substance shows an inhibitory effect (p < 0.05))

## CC1=C(C/C=C(\C)CCC[C@H](C)CCC[C@H](C)CCCC(C)C)C(=O)c2ccccc2C1=O [Vitamin K1, reference compound]
[1]
  Judged Efficacy (TRACP, t-test relative to the control): ◯ (The test substance shows an inhibitory effect (p < 0.05))
  TRACP Act.: 88.5 ± 8.1 KA-U/well
[2]
  Cell Growth Rate: 69.3%
[3]
  ALP Act.: 76.1 ± 4.9 KA-U/well
  Judged Efficacy (ALP, t-test relative to the control): Δ

## CC(C)=CCC/C(C)=C/CC/C(C)=C/CC/C(C)=C/CC1=C(C)C(=O)c2ccccc2C1=O [Vitamin K2 (MK-4), reference compound]
[1]
  Judged Efficacy (TRACP, t-test relative to the control): ⊚ (The test substance shows a considerable inhibitory effect (p < 0.01))
  TRACP Act.: 20.3 ± 4.1 KA-U/well
[2]
  Cell Growth Rate: 32.4%
[2]; compared with the control
  Effect on proliferation of osteoblasts (in words): reduces the rate of cell proliferation
[3]
  ALP Act.: 78.6 ± 3.2 KA-U/well
  Judged Efficacy (ALP, t-test relative to the control): ◯ (The test substance shows an inhibitory effect (p < 0.05))

## CC1=CC(=O)c2ccccc2C1=O [Vitamin K3, reference compound]
[1]
  Judged Efficacy (TRACP, t-test relative to the control): ◯ (The test substance shows an inhibitory effect (p < 0.05))
  TRACP Act.: 87.9 ± 10.2 KA-U/well
[2]
  Cell Growth Rate: 0.0%
[3]
  ALP Act.: 91.2 ± 11.0 KA-U/well
  Judged Efficacy (ALP, t-test relative to the control): ◯ (The test substance shows an inhibitory effect (p < 0.05))

## Farnesyl Eicosapentaenoate
[1]
  Judged Efficacy (TRACP, t-test relative to the control): Δ
  TRACP Act.: 96.9 ± 12.7 KA-U/well
[2]
  Cell Growth Rate: 115.6%
[3]
  ALP Act.: 85.4 ± 8.4 KA-U/well
  Judged Efficacy (ALP, t-test relative to the control): ◯ (The test substance shows an inhibitory effect (p < 0.05))

## Geranyl Eicosapentaenoate
[1]
  Judged Efficacy (TRACP, t-test relative to the control): Δ
  TRACP Act.: 87.4 ± 10.3 KA-U/well
[2]
  Cell Growth Rate: 121.4%
[3]
  ALP Act.: 87.2 ± 10.6 KA-U/well
  Judged Efficacy (ALP, t-test relative to the control): ◯ (The test substance shows an inhibitory effect (p < 0.05))

## Geranyl-Geranyl Conjugated Linoleate
[2]
  Cell Growth Rate: 120.1%
[3]
  ALP Act.: 88.3 ± 4.8 KA-U/well
  Judged Efficacy (ALP, t-test relative to the control): ⊚ (The test substance shows a considerable inhibitory effect (p < 0.01))

## Geranyl-Geranyl Docosahexaenoate
[1]
  Judged Efficacy (TRACP, t-test relative to the control): ⊚ (The test substance shows a considerable inhibitory effect (p < 0.01))
  TRACP Act.: 18.5 ± 5.8 KA-U/well
[2]
  Cell Growth Rate: 104.8%
[3]
  ALP Act.: 89.8 ± 6.1 KA-U/well
  Judged Efficacy (ALP, t-test relative to the control): ⊚ (The test substance shows a considerable inhibitory effect (p < 0.01))

## Phytyl Eicosapentaenoate
[1]
  Judged Efficacy (TRACP, t-test relative to the control): ◯ (The test substance shows an inhibitory effect (p < 0.05))
  TRACP Act.: 84.2 ± 7.1 KA-U/well
[2]
  Cell Growth Rate: 123.4%
[3]
  ALP Act.: 114.6 ± 7.7 KA-U/well
  Judged Efficacy (ALP, t-test relative to the control): ⊚ (The test substance shows a considerable inhibitory effect (p < 0.01))
